# Assay results taken from patent publication US20020137929A1, “1 - (3-heterocyclylphenyl) isothiourea, -isourea, -guanidine and -amidine herbicidal agents” (Intellectual Property Department, BASF Aktiengesellschaft, priority 1998, published 2002).
# Experiments:
# SETVI (Foxtail, Green) [1] = assay: Postemergence herbicidal evaluation; assay type: in vivo, Setaria viridis; conditions: postemergence
# How it was run: (§1)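 Herbicidal effect was judged by eye on a 0–9 scale covering stand, vigor, deformity, size and chlorosis, compared with controls, four to five weeks after seedlings about two weeks old were sprayed (40 psi, ~0.0156–0.500 kg/ha).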
# ORYSAT (Rice, Tebonnet) = assay: Postemergence herbicidal evaluation; assay type: in vivo, Oryza sativa, (L.) Tebonnet; conditions: postemergence
# How it was run: as §1
# [2] = system: GLXMAW (Soybean, Williams); assay: Postemergence herbicidal evaluation; assay type: in vivo, Glycine max, (L.) Merr. cv Williams; conditions: postemergence
# How it was run: as §1
# [3] = system: TRZAWR (Wheat, Winter, cv Riband); assay: Postemergence herbicidal evaluation; assay type: in vivo, Triticum aestivum; conditions: postemergence
# How it was run: as §1
# CYPIR (Rice Flatsedge) = assay: Preemergence weed control under flooded paddy conditions; assay type: in vivo, Cyperus iria; conditions: rated 3-4 weeks after treatment
# How it was run: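 Visual injury scored 0-9 against control three to four weeks post-treatment, greenhouse-grown. Application: acetone/water (50/50) solutions dosed directly into flood water (1.5-3 cm over silt loam, planted top 0.5 cm), roughly 0.0313 to 0.500 kg/ha active ingredient.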
# ZEAMX (Corn, Field) = assay: Postemergence herbicidal evaluation; assay type: in vivo, Zea mays; conditions: postemergence
# How it was run: as §1
# AMBEL (Ragweed, Common) = assay: Preemergence herbicidal evaluation; assay type: in vivo, Ambrosia artemisifolia; conditions: rated 4-5 weeks after treatment; for AMBEL rating: preemergence, 0-9 scale
# How it was run: (§2)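 Scores use a 0–9 visual scale covering stand, vigor, malformation, size and chlorosis relative to controls, rated four to five weeks after treatment. Before emergence, soil-planted seeds were sprayed with compound in aqueous acetone at roughly 0.0156–0.500 kg/ha and held in the greenhouse.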
# [4] = system: CHEAL (Lambsquarters, Common); assay: Postemergence herbicidal evaluation; assay type: in vivo, Chenopodium album; conditions: postemergence
# How it was run: as §1
# ABUTH (Velvetleaf) = assay: Postemergence herbicidal evaluation; assay type: in vivo, Abutilon theophrasti; conditions: postemergence
# How it was run: as §1
# SETVI (Foxtail, Green) [5] = assay: Preemergence herbicidal evaluation; assay type: in vivo, Setaria viridis; conditions: rated 4-5 weeks after treatment; for SETVI rating: preemergence, 0-9 scale
# How it was run: as §2
# GALAP (Galium) = assay: Preemergence herbicidal evaluation; assay type: in vivo, Galium aparine; conditions: rated 4-5 weeks after treatment; for GALAP rating: preemergence, 0-9 scale
# How it was run: as §2
# [6] = rate 0.1250 kg/ha, rating scale 0-9
# [7] = rate 0.2500 kg/ha, rating scale 0-9
structure (smiles),measurement,setting,value
"COC(=O)CSCCN1C(=O)CSC1=Nc1cc(-n2c(=O)cc(C(F)(F)F)n(C)c2=O)c(F)cc1Cl [Compound 158, Methyl {{2-{2-{{2-chloro-5-[3,6-dihydro-3-methyl-2,6-dioxo-4-(trifluoromethyl)-1(2H)-pyrimidinyl]-4-fluorophenyl}imino}-4-oxo-3-thiazolidinyl}ethyl}-thio}acetate]",herbicidal rating SETVI,"SETVI (Foxtail, Green) [1]; rate 0.0156 kg/ha",2.0
same,herbicidal rating SETVI,"SETVI (Foxtail, Green) [1]; rate 0.0313 kg/ha",3.0
same,herbicidal rating SETVI,"SETVI (Foxtail, Green) [1]; rate 0.0625 kg/ha",9.0
same,herbicidal rating ORYSAT,"ORYSAT (Rice, Tebonnet); rate 0.0156 kg/ha",2.0
same,herbicidal rating ORYSAT,"ORYSAT (Rice, Tebonnet); rate 0.0313 kg/ha",2.5
same,herbicidal rating ORYSAT,"ORYSAT (Rice, Tebonnet); rate 0.0625 kg/ha",3.5
same,herbicidal rating GLXMAW,[2]; rate 0.0156 kg/ha,5.0
same,herbicidal rating GLXMAW,[2]; rate 0.0313 kg/ha,5.0
same,herbicidal rating GLXMAW,[2]; rate 0.0625 kg/ha,7.0
same,herbicidal rating TRZAWR,[3]; rate 0.0156 kg/ha,3.5
same,herbicidal rating TRZAWR,[3]; rate 0.0313 kg/ha,4.0
same,herbicidal rating TRZAWR,[3]; rate 0.0625 kg/ha,3.5
same,"herbicidal effect rating, CYPIR",CYPIR (Rice Flatsedge); 0.0313 kg/ha,9.0
same,"herbicidal effect rating, CYPIR",CYPIR (Rice Flatsedge); 0.0625 kg/ha,9.0
same,"herbicidal effect rating, CYPIR",CYPIR (Rice Flatsedge); 0.1250 kg/ha,9.0
same,"herbicidal effect rating, CYPIR",CYPIR (Rice Flatsedge); 0.2500 kg/ha,9.0
same,herbicidal rating ZEAMX,"ZEAMX (Corn, Field); rate 0.0156 kg/ha",4.0
same,herbicidal rating ZEAMX,"ZEAMX (Corn, Field); rate 0.0313 kg/ha",4.5
same,herbicidal rating ZEAMX,"ZEAMX (Corn, Field); rate 0.0625 kg/ha",5.5
same,Preemergence herbicidal rating AMBEL,"AMBEL (Ragweed, Common); 0.0156 kg/ha",1.0
same,Preemergence herbicidal rating AMBEL,"AMBEL (Ragweed, Common); 0.0313 kg/ha",3.0
same,Preemergence herbicidal rating AMBEL,"AMBEL (Ragweed, Common); 0.0625 kg/ha",7.0
same,Preemergence herbicidal rating AMBEL,"AMBEL (Ragweed, Common); [6]",9.0
same,Preemergence herbicidal rating AMBEL,"AMBEL (Ragweed, Common); [7]",9.0
same,herbicidal rating CHEAL,[4]; rate 0.0156 kg/ha,6.0
same,herbicidal rating CHEAL,[4]; rate 0.0313 kg/ha,7.0
same,herbicidal rating CHEAL,[4]; rate 0.0625 kg/ha,9.0
same,herbicidal rating ABUTH,ABUTH (Velvetleaf); rate 0.0156 kg/ha,9.0
same,herbicidal rating ABUTH,ABUTH (Velvetleaf); rate 0.0313 kg/ha,9.0
same,herbicidal rating ABUTH,ABUTH (Velvetleaf); rate 0.0625 kg/ha,9.0
same,Preemergence herbicidal rating SETVI,"SETVI (Foxtail, Green) [5]; 0.0156 kg/ha",7.0
same,Preemergence herbicidal rating SETVI,"SETVI (Foxtail, Green) [5]; 0.0313 kg/ha",9.0
same,Preemergence herbicidal rating SETVI,"SETVI (Foxtail, Green) [5]; 0.0625 kg/ha",9.0
same,Preemergence herbicidal rating SETVI,"SETVI (Foxtail, Green) [5]; [6]",9.0
same,Preemergence herbicidal rating SETVI,"SETVI (Foxtail, Green) [5]; [7]",9.0
same,Preemergence herbicidal rating GALAP,GALAP (Galium); 0.0156 kg/ha,0.0
same,Preemergence herbicidal rating GALAP,GALAP (Galium); 0.0313 kg/ha,0.0
same,Preemergence herbicidal rating GALAP,GALAP (Galium); 0.0625 kg/ha,5.0
same,Preemergence herbicidal rating GALAP,GALAP (Galium); [6],7.0
same,Preemergence herbicidal rating GALAP,GALAP (Galium); [7],6.0
"C=CCOC(=O)CN1C(=O)CSC1=Nc1cc(-n2c(=O)cc(C(F)(F)F)n(C)c2=O)c(F)cc1Cl [Compound 106, Allyl 2-{{2-chloro-5-[3,6-dihydro-3-methyl-2,6-dioxo-4-(trifluoromethyl)-1(2H)-pyrimidinyl]-4-fluorophenyl}imino}-4-oxo-3-thiazolidineacetate]",herbicidal rating SETVI,"SETVI (Foxtail, Green) [1]; rate 0.0158 kg/ha",4.0
same,herbicidal rating SETVI,"SETVI (Foxtail, Green) [1]; rate 0.0315 kg/ha",3.0
same,herbicidal rating SETVI,"SETVI (Foxtail, Green) [1]; rate 0.0630 kg/ha",9.0
same,herbicidal rating ORYSAT,"ORYSAT (Rice, Tebonnet); rate 0.0158 kg/ha",2.0
same,herbicidal rating ORYSAT,"ORYSAT (Rice, Tebonnet); rate 0.0315 kg/ha",2.5
same,herbicidal rating ORYSAT,"ORYSAT (Rice, Tebonnet); rate 0.0630 kg/ha",4.0
same,herbicidal rating GLXMAW,[2]; rate 0.0158 kg/ha,4.5
same,herbicidal rating GLXMAW,[2]; rate 0.0315 kg/ha,5.5
same,herbicidal rating GLXMAW,[2]; rate 0.0630 kg/ha,6.0
same,herbicidal rating TRZAWR,[3]; rate 0.0158 kg/ha,2.5
same,herbicidal rating TRZAWR,[3]; rate 0.0315 kg/ha,3.0
same,herbicidal rating TRZAWR,[3]; rate 0.0630 kg/ha,4.5
same,CYPIR herbicidal effect rating,CYPIR (Rice Flatsedge); 0.0313 kg/ha,5.0
same,CYPIR herbicidal effect rating,CYPIR (Rice Flatsedge); 0.0625 kg/ha,6.0
same,CYPIR herbicidal effect rating,CYPIR (Rice Flatsedge); 0.1250 kg/ha,6.0
same,CYPIR herbicidal effect rating,CYPIR (Rice Flatsedge); 0.2500 kg/ha,9.0
same,herbicidal rating ZEAMX,"ZEAMX (Corn, Field); rate 0.0158 kg/ha",5.0
same,herbicidal rating ZEAMX,"ZEAMX (Corn, Field); rate 0.0315 kg/ha",6.5
same,herbicidal rating ZEAMX,"ZEAMX (Corn, Field); rate 0.0630 kg/ha",7.0
same,AMBEL rating,"AMBEL (Ragweed, Common); 0.0313 kg/ha",1.5
same,AMBEL rating,"AMBEL (Ragweed, Common); 0.0625 kg/ha",5.0
same,AMBEL rating,"AMBEL (Ragweed, Common); 0.1250 kg/ha",7.0
same,AMBEL rating,"AMBEL (Ragweed, Common); 0.2500 kg/ha",9.0
same,Preemergence herbicidal rating AMBEL,"AMBEL (Ragweed, Common); rate 0.0156 kg/ha",1.5
same,herbicidal rating CHEAL,[4]; rate 0.0158 kg/ha,7.0
same,herbicidal rating CHEAL,[4]; rate 0.0315 kg/ha,7.0
same,herbicidal rating CHEAL,[4]; rate 0.0630 kg/ha,7.0
same,herbicidal rating ABUTH,ABUTH (Velvetleaf); rate 0.0158 kg/ha,9.0
same,herbicidal rating ABUTH,ABUTH (Velvetleaf); rate 0.0315 kg/ha,9.0
same,herbicidal rating ABUTH,ABUTH (Velvetleaf); rate 0.0630 kg/ha,9.0
same,SETVI rating,"SETVI (Foxtail, Green) [5]; 0.0313 kg/ha",0.5
same,SETVI rating,"SETVI (Foxtail, Green) [5]; 0.0625 kg/ha",4.5
same,SETVI rating,"SETVI (Foxtail, Green) [5]; 0.1250 kg/ha",9.0
same,SETVI rating,"SETVI (Foxtail, Green) [5]; 0.2500 kg/ha",9.0
same,Preemergence herbicidal rating SETVI,"SETVI (Foxtail, Green) [5]; rate 0.0156 kg/ha",0.0
same,GALAP rating,GALAP (Galium); 0.0313 kg/ha,2.0
same,GALAP rating,GALAP (Galium); 0.0625 kg/ha,3.0
same,GALAP rating,GALAP (Galium); 0.1250 kg/ha,6.0
same,GALAP rating,GALAP (Galium); 0.2500 kg/ha,7.0
same,Preemergence herbicidal rating GALAP,GALAP (Galium); rate 0.0156 kg/ha,1.0
